Assay results from US8846951B2 (AbbVie Inc., priority 2009, dated 2014).
Like-named read-outs stand apart in the source and are kept apart here.

Tests used:
5HT2C receptors = target: T1, 5HT2C receptors (Homo sapiens, UniProt P28335); assay: Human 5-HT2C functional high throughput screening assay in CHO-K1 cells (calcium flux); format: cell-based; set-up: expressed in transfected cells; host or cells: CHO-K1 cells; conditions: for Emax: CHO-K1; for EC50: CHO-K1 cells, calcium flux
T1 sequence (P28335 33-458): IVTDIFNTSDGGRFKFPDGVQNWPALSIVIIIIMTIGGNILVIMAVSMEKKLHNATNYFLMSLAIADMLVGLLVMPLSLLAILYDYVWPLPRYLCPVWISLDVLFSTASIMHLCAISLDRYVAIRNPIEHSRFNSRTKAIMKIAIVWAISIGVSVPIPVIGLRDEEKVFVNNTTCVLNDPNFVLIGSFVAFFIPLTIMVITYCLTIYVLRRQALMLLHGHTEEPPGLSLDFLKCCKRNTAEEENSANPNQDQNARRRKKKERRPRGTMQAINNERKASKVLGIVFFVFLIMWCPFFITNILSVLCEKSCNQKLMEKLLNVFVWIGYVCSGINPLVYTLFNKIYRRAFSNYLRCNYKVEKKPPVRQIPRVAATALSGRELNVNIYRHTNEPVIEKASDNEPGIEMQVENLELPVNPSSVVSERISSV
In short: (§1)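 Calcium flux in CHO-K1 cells overexpressing each receptor, using Ca4 dye with probenecid and FLIPR detection. Top concentration was 10 μM, diluted 1:10 across 6 points, and efficacy was scaled to serotonin.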

5HT2B receptors = target: T2, 5HT2B receptors (Homo sapiens, UniProt P41595); assay: Human 5-HT2B functional high throughput screening assay in CHO-K1 cells (calcium flux); format: cell-based; conditions: for EC50: CHO-K1 cells, calcium flux
T2 construct: expressed in transfected cells; host or cells: CHO-K1 cells
In short: as §1

[1] = 5-HT2C, maximum functional response as percentage relative to the effect of serotonin
[2] = 5-HT2C agonist activity, read-out: EC50
[3] = 5-HT2B agonist activity, read-out: EC50
[4] = 5-HT2B, maximum functional response as percentage relative to the effect of serotonin
[5] = 5-HT2C, maximum functional response as percentage relative to the effect of serotonin, read-out: Emax

T2 sequence (P41595 whole entry): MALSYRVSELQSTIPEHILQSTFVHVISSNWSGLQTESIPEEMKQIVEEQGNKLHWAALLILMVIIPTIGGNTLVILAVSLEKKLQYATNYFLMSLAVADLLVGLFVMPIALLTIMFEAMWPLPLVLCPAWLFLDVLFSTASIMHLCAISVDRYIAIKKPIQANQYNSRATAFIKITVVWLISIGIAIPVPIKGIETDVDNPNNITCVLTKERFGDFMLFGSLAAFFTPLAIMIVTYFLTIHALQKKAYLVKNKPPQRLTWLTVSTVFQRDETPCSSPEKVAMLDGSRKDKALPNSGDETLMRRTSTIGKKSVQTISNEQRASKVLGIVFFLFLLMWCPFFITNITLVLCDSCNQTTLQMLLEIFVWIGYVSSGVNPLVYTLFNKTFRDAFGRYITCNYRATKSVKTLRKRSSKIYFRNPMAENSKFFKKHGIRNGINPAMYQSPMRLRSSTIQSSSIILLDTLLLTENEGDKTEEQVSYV

Compound | Emax (5HT2C receptors; [1]) [%] | EC50 (5HT2C receptors; EC50, 5-HT2C agonist activity) [µM] | Emax (5HT2B receptors; CHO-K1) [%] | EC50 (5HT2B receptors; EC50, 5-HT2B agonist activity) [µM] | EC50 (5HT2C receptors; [2]) [µM] | EC50 (5HT2B receptors; [3]) [µM] | Emax (5HT2B receptors; [4]) | Emax (5HT2C receptors; [5]) [%] | Emax (5HT2C receptors) [%] | Emax (5HT2B receptors) | Emax (5HT2B receptors; CHO-K1, 5-HT2B, maximum functional response as percentage relative to the effect of serotonin, read-out: Emax) [%]
O=S(=O)(c1ccccc1Cl)N1Cc2cccnc2[C@@H]2CNC[C@H]2C1 (relative stereo) [Example 362, Trans-6-[(2-chlorophenyl)sulfonyl]-5,6,7,7a,8,9,10,10a-octahydropyrido[3,2-c]pyrrolo[3,4-e]azepine] | 80 | 0.1 | 75 | 0.3 |  |  |  |  |  |  | 
CN1C[C@@H]2CNC(=O)c3cc(-c4ccccn4)ccc3[C@H]2C1 [Example 388, (3aS,10bS)-2-Methyl-8-(pyridin-2-yl)-2,3,3a,4,5,10b-hexahydropyrrolo[3,4-d][2]benzazepin-6(1H)-one] | 90 |  |  |  | 0.3 | > 10 | inactive |  |  |  | 
CC(O)c1cccc(-c2ccc3c(c2)C(=O)N(C)C[C@@H]2CN(C)C[C@@H]32)c1 (relative stereo) [Example 193, Trans-8-(3-(1-hydroxyethyl)phenyl)-2,5-dimethyl-1,2,3,3a,4,5-hexahydrobenzo[e]pyrrolo[3,4-c]azepin-6(10bH)-one] |  |  |  |  | 0.02 | > 10 | inactive | > 120 |  |  | 
Fc1ccc2c(c1)[C@H]1CNC[C@@H]1CCO2 (relative stereo) [Example 286, Trans-9-fluoro-2,3,3a,4,5,10b-hexahydro-1H-[1]benzoxepino[4,5-c]pyrrole] | 90 | 0.3 | 60 | 0.05 |  |  |  |  |  |  | 
O=S(=O)(c1cccs1)N1Cc2cccnc2[C@@H]2CNC[C@H]2C1 (relative stereo) [Example 358, Trans-6-(2-thienylsulfonyl)-5,6,7,7a,8,9,10,10a-octahydropyrido[3,2-c]pyrrolo[3,4-e]azepine] | 20 |  |  |  | 0.3 | > 10 | inactive |  |  |  | 
CC(C)COc1ccc2c(c1)C(=O)NC[C@@H]1CN(CCF)C[C@@H]21 (relative stereo) [Example 380, Trans-2-(2-fluoroethyl)-8-isobutoxy-2,3,3a,4,5,10b-hexahydropyrrolo[3,4-d][2]benzazepin-6(1H)-one] |  |  |  |  | 0.3 | > 10 |  |  | 75 | inactive | 
O=C1NC[C@@H]2CNC[C@H]2c2ccc(OCc3ccccc3F)cc21 (relative stereo) [Example 147, Trans-8-(2-fluorobenzyloxy)-1,2,3,3a,4,5-hexahydrobenzo[e]pyrrolo[3,4-c]azepin-6(10bH)-one] | > 120 |  |  | > 10 |  |  | inactive |  |  |  | 
COc1cccc(S(=O)(=O)N2Cc3cccnc3[C@@H]3CNC[C@H]3C2)c1 (relative stereo) [Example 336, Trans-6-[(3-methoxyphenyl)sulfonyl]-5,6,7,7a,8,9,10,10a-octahydropyrido[3,2-e]pyrrolo[3,4-e]azepine] |  |  |  |  | 0.09 | 0.6 |  | 90 |  |  | 70
FC(F)(F)Oc1cccc2c1OCC[C@H]1CNC[C@H]21 (relative stereo) [Example 285, Trans-7-(trifluoromethoxy)-2,3,3a,4,5,10b-hexahydro-1H-[1]benzoxepino[4,5-c]pyrrole] | 100 | < 0.0001 | 90 | 0.009 |  |  |  |  |  |  | 
CN1C[C@H]2CNC(=O)c3cc(-c4ccccc4S(C)(=O)=O)ccc3[C@@H]2C1 (relative stereo) [Example 232, Trans-2-methyl-8-(2-(methylsulfonyl)phenyl)-1,2,3,3a,4,5-hexahydrobenzo[c]pyrrolo[3,4-e]azepin-6(10bH)-one] |  |  |  |  | 3 | > 10 | inactive | 30 |  |  | 
c1ccc(-c2cccc3c2OCC[C@H]2CNC[C@H]32)cc1 (relative stereo) [Example 397, Trans-7-phenyl-2,3,3a,4,5,10b-hexahydro-1H-[1]benzoxepino[4,5-c]pyrrole] |  |  |  |  | 0.005 | > 10 | inactive | 95 |  |  | 
O=C1C[C@@H]2CN(Cc3ccccc3)C[C@H]2c2ccccc2N1 (relative stereo) [Example 222, Trans-2-benzyl-1,2,3,3a,4,10b-hexahydrobenzo[b]pyrrolo[3,4-d]azepin-5(6H)-one] |  |  |  |  | 0.4 | > 10 | inactive | > 120 |  |  | 
COc1cccc2c1OCC[C@H]1CNC[C@H]21 (relative stereo) [Example 372, Trans-7-methoxy-2,3,3a,4,5,10b-hexahydro-1H-[1]benzoxepino[4,5-c]pyrrole] | 70 |  | 25 |  | 1 | 0.2 |  |  |  |  | 
CN1C[C@H]2CNC(=O)c3cc(-c4cccc(C#N)c4)ccc3[C@@H]2C1 (relative stereo) [Example 240, 3-(Trans-2-methyl-6-oxo-1,2,3,3a,4,5,6,10b-octahydrobenzo[c]pyrrolo[3,4-e]azepin-8-yl)benzonitrile] |  |  |  |  | 0.01 | > 10 | inactive | > 120 |  |  | 
O=C1NC[C@H]2CNC[C@@H]2c2ccc(OCc3ccccc3F)cc21 [Example 179, (3aR,10bS)-8-(2-Fluorobenzyloxy)-1,2,3,3a,4,5-hexahydrobenzo[e]pyrrolo[3,4-e]azepin-6(10bH)-one] | > 120 | 0.0003 |  | > 10 |  |  | inactive |  |  |  | 
O=C1NC[C@@H]2CNC[C@H]2c2cccc(OC(F)(F)F)c21 (relative stereo) [Example 103, Trans-7-(trifluoromethoxy)-1,2,3,3a,4,5-hexahydrobenzo[c]pyrrolo[3,4-e]azepin-6(10bH)-one] | > 120 | 0.0007 | 110 | 0.08 |  |  |  |  |  |  | 
CC(C)CNc1ccc2c(c1)C(=O)NC[C@@H]1CN(C)C[C@@H]21 (relative stereo) [Example 297, Trans-8-(isobutylamino)-2-methyl-2,3,3a,4,5,10b-hexahydropyrrolo[3,4-d][2]benzazepin-6(1H)-one] | 80 | 0.1 |  | > 10 |  |  | inactive |  |  |  | 
CCS(=O)(=O)c1cccc(-c2ccc3c(c2)C(=O)NC[C@@H]2CNC[C@@H]32)c1 (relative stereo) [Example 250, Trans-8-(3-(ethylsulfonyl)phenyl)-1,2,3,3a,4,5-hexahydrobenzo[c]pyrrolo[3,4-e]azepin-6(10bH)-one] |  |  |  |  | 0.003 | > 10 | inactive | 105 |  |  | 
CC(C)COc1ccc2c(c1)C(=O)NC[C@@H]1CN(C)C[C@@H]21 (relative stereo) [Example 172, Trans-8-isobutoxy-2-methyl-1,2,3,3a,4,5-hexahydrobenzo[e]pyrrolo[3,4-c]azepin-6(10bH)-one] | > 120 | 0.06 |  | > 10 |  |  | inactive |  |  |  | 
COc1ccc2c(c1)C(=O)NC[C@@H]1CNC[C@H]21 (relative stereo) [Example 135, Cis-8-methoxy-1,2,3,3a,4,5-hexahydrobenzo[e]pyrrolo[3,4-c]azepin-6(10bH)-one] | > 120 |  |  |  | 0.8 | > 10 | inactive |  |  |  | 
COc1cccc(-c2ccc3c(c2)C(=O)NC[C@@H]2CN(C)C[C@@H]32)c1 (relative stereo) [Example 133, Trans-8-(3-methoxyphenyl)-2-methyl-1,2,3,3a,4,5-hexahydrobenzo[e]pyrrolo[3,4-c]azepin-6(10bH)-one] |  |  |  |  |  | > 10 | inactive | > 120 |  |  | 
CN1C[C@H]2CNC(=O)c3cc(-c4ccc5ccccc5c4)ccc3[C@@H]2C1 (relative stereo) [Example 80, Trans-2-methyl-8-(naphthalen-2-yl)-1,2,3,3a,4,5-hexahydrobenzo[e]pyrrolo[3,4-c]azepin-6(10bH)-one] |  |  |  |  | 0.022 | > 10 | inactive | > 120 |  |  | 
CC1(C)CCC(Oc2ccc3c(c2)C(=O)NC[C@@H]2CNC[C@@H]32)CC1 (relative stereo) [Example 246, Trans-8-(4,4-dimethylcyclohexyloxy)-1,2,3,3a,4,5-hexahydrobenzo[e]pyrrolo[3,4-c]azepin-6(10bH)-one] | 100 | 0.04 |  | > 10 |  |  | inactive |  |  |  | 
CN1C[C@H]2CNC(=O)c3cc(-c4cccc(F)c4)ccc3[C@@H]2C1 (relative stereo) [Example 76, Trans-8-(3-fluorophenyl)-2-methyl-1,2,3,3a,4,5-hexahydrobenzo[e]pyrrolo[3,4-c]azepin-6(10bH)-one] |  |  |  |  | 0.011 | > 10 | inactive | > 120 |  |  | 
